Laboratory results from PubChem BioAssay (NCI).
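Five concentrations, 48 hours, 96-well plates. TGI denotes the concentration required for complete inhibition of growth.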

What was measured:
Test in all cases: NCI-60 cell line screen, 48 h
OVCAR-8 ovarian = system: OVCAR-8 ovarian
HT29 colon = system: HT29 colon
MDA-MB-435 = system: MDA-MB-435
NCI-H460 lung = system: NCI-H460 lung
HOP-92 NSCLC = system: HOP-92 NSCLC
T-47D breast = system: T-47D breast
OVCAR-4 ovarian = system: OVCAR-4 ovarian
MCF7 breast = system: MCF7 breast
SF-539 CNS = system: SF-539 CNS
OVCAR-3 ovarian = system: OVCAR-3 ovarian
SK-MEL-2 melanoma = system: SK-MEL-2 melanoma
MDA-MB-231 breast = system: MDA-MB-231 breast
DU-145 prostate = system: DU-145 prostate
HOP-62 NSCLC = system: HOP-62 NSCLC
UO-31 renal = system: UO-31 renal

| Structure (SMILES) | TGI (OVCAR-8 ovarian) | TGI (HT29 colon) | TGI (MDA-MB-435) | TGI (NCI-H460 lung) | TGI (HOP-92 NSCLC) | TGI (T-47D breast) | TGI (OVCAR-4 ovarian) | TGI (MCF7 breast) | TGI (SF-539 CNS) | TGI (OVCAR-3 ovarian) | TGI (SK-MEL-2 melanoma) | TGI (MDA-MB-231 breast) | TGI (DU-145 prostate) | TGI (HOP-62 NSCLC) | TGI (UO-31 renal) |
| --- | --- | --- | --- | --- | --- | --- | --- | --- | --- | --- | --- | --- | --- | --- | --- |
| COc1ccc(/C=C2\CCCCCC2=O)cc1 | > 100 µM | > 100 µM | > 100 µM | > 100 µM | > 100 µM | > 100 µM | > 100 µM | > 100 µM | > 100 µM | > 100 µM | > 100 µM | > 100 µM | > 100 µM | > 100 µM | > 100 µM |
| [O-][n+]1onc(-c2ccccc2)c1CN1CCOCC1 | > 100 µM | > 100 µM | > 100 µM | > 100 µM | > 100 µM | > 100 µM | > 100 µM | > 100 µM | > 100 µM | > 100 µM | > 100 µM | > 100 µM | > 100 µM | > 100 µM | > 100 µM |
| Nc1cn(Cc2ccccc2)c2nc(/C=C3/C=CC=CC3=O)c(O)n12 | > 100 µM | > 100 µM | > 100 µM | > 100 µM | > 100 µM | > 100 µM | > 100 µM | > 100 µM | > 100 µM | > 100 µM | > 100 µM | > 100 µM | > 100 µM | > 100 µM | > 100 µM |
| O=C(CCc1ccc(O)cc1)NCCc1cccc(OCc2ccccc2)c1 | > 100 µM | 38.4 µM | 38.6 µM | 66.6 µM | 70.9 µM | 67.7 µM | > 100 µM | 86.6 µM | 31 µM | 35.1 µM | 39.1 µM | > 100 µM | > 100 µM | > 100 µM | 53.9 µM |
| c1ccc(Nc2nnc(Cn3ccc4ccccc43)s2)cc1 | > 100 µM | > 100 µM | > 100 µM | > 100 µM | > 100 µM | > 100 µM | > 100 µM | > 100 µM | > 100 µM | > 100 µM | > 100 µM | > 100 µM | > 100 µM | > 100 µM | > 100 µM |
| CCCCC(=O)NC1(c2cc3ccccc3s2)CCCCC1 | > 100 µM | > 100 µM | > 100 µM | > 100 µM | > 100 µM | > 100 µM | > 100 µM | > 100 µM | > 100 µM | > 100 µM | > 100 µM | > 100 µM | > 100 µM | > 100 µM | > 100 µM |
| NC(=O)C(c1ccccc1)N1OC2C(=O)N(c3cccc4ccccc34)C(=O)C2C1c1c2ccccc2c(Cl)c2ccccc12 (stereo not given) | 19.4 µM | 14.7 µM | 22.7 µM | 18.6 µM | 32 µM | 31.7 µM | 33.2 µM | 11.2 µM | 12.9 µM | 17.5 µM | 19.6 µM | 18.8 µM | 46.6 µM | 27.8 µM | 20.3 µM |
| COc1cccc2c(Nc3ccc(S(=O)(=O)NC(C)=O)cc3)c3ccc([N+](=O)[O-])cc3nc12 | > 100 µM | 28.5 µM | > 65.2 µM | > 100 µM | > 100 µM | > 100 µM | > 100 µM | > 100 µM | > 100 µM | > 90.4 µM | > 100 µM | 56.6 µM | > 100 µM | > 100 µM | > 100 µM |
| C=C1CC(C)(COc2ccc3ccc(=O)oc3c2)OC1=O (stereo not given) | 19.7 µM | 9.66 µM | 9.35 µM | 22.9 µM | 4.4 µM | 17.3 µM | 11.1 µM | 5.65 µM | 10.2 µM | 17.2 µM | 8.8 µM | 24.6 µM | 12.5 µM | 39.5 µM | 29.5 µM |
| CC1(C)CCCCCCC2OC2CCCCCC(C)(C)C1=O (stereo not given) | > 100 µM | > 60.5 µM | > 100 µM | > 100 µM | > 81 µM | > 100 µM | > 100 µM | > 73.3 µM | > 100 µM | > 100 µM | > 65.4 µM | > 100 µM | > 100 µM | > 100 µM | 88.2 µM |
| C[C@H]1C[C@H](C)c2ccccc2N(C)C1=Nc1ccccc1 | > 100 µM | 23.3 µM | 52.8 µM | 64.4 µM | 40.1 µM | > 100 µM | > 100 µM | > 100 µM | > 100 µM | 80 µM | 44.2 µM | 41.4 µM | > 100 µM | > 100 µM | > 100 µM |
| COc1ccc(-c2c(CN3CCOCC3)sc3nc4ccccc4n23)cc1 | > 100 µM | 31.1 µM | 14.4 µM | 53.5 µM | > 100 µM | > 100 µM | > 100 µM | > 100 µM | 41.7 µM | > 80.9 µM | > 100 µM | > 68.9 µM | > 100 µM | > 100 µM | > 100 µM |
